Legend:
[1] = index of diffusion (spreading value), in vivo test on the forearm; details: 4 mg on the forearm; 23°C; relative humidity 60%; ten minutes after application
Description: The index of diffusion of a compound is defined as the area (in mm^2) of a skin surface covered by said compound in a specific period of time.
The method used to determine the index of diffusion of a liquid component is an in vivo test. This method consists in applying 4 mg of the component to be analysed on the front forearm of an individual. For each component, 4 separate applications were carried out on the same individual. The test is carried out at a temperature of 23°C and at a relative humidity of 60%. Ten minutes after application of a sample on the forearm the area of diffusion was photographed and measured.

[2] = viscosity, Rheomat RM 180 rheometer; format: physicochemical; details: at 20°C; 1500 shear rate for 5 min.
Description: The viscosity is measured using a Rheomat RM 180 rheometer. The sample analysed has a temperature between 20-25°C. The settings for the viscosity test are: bob 9, tube 1, 1500 shear rate for 5 min. (300 sec.).

Question: What does the source list for `CCCCCCCCOCCCCCCCC` [Dicaprylyl ether]?
Answer: Index of diffusion [1]: 1600 mm^2/10 min.; Viscosity [2]: 4 mPa·s
